Columns and labels:
[1] = system: Colletotrichum acutatum; test: Fungicidal effect test against fungi causing apple anthracnose; settings: 96 h, read-out: growth inhibition ratio
[2] = system: Erysiphe graminis f.sp.tritici; test: Control test of wheat powdery mildew disease (sprayed young wheat seedlings); type: in vivo; settings: Blumeria graminis, 144 h, 125 ppm by mass spray, six days after inoculation
Text: [formula] […] Then, the drug liquid was sprayed onto young wheat seedlings cultivated in a nursery pot (variety “Chihoku”, one-to two-leaf stage), and then air-dried. Thereafter, conidiospores of fungi causing wheat powdery mildew disease (Erysiphe graminis f.sp.tritici) were sprinkled on the young wheat seedlings to inoculate them (treated area). As a control, the conidiospores of fungi causing wheat powdery mildew disease (Erysiphe graminis f.sp.tritici) were sprinkled on young wheat seedlings unsprayed with the drug liquid (untreated area). They were left still in a greenhouse at 20° C. Six days after inoculation, leaves of young wheat seedlings were visually observed, and the lesion area ratio was determined to calculate the control value in a similar manner to the previous test.

[3] = system: Venturia inaequalis; test: Control test of apple scab disease (sprayed young apple seedlings); type: in vivo; settings: 125 ppm by mass spray, 12 to 14 days after inoculation
Protocol: [formula] […] Then, the drug liquid was sprayed onto young apple seedlings cultivated in a nursery pot (variety “Orin”, three-to four-leaf stage), and then air-dried. Thereafter, conidiospores of fungi causing apple scab disease (Venturia inaequalis) were inoculated thereon (treated area). As a control, the conidiospores were inoculated in a similar manner to the above on young apple seedlings unsprayed with the drug liquid (untreated area). They were left still at 20° C. in a moist room with light and dark cycles repeated every 12 hours. 12 Days to 14 days after inoculation, leaves of young apple seedlings were visually observed, and the control value was calculated from the lesion area ratio in accordance with the equation used in the control test of cucumber gray mold.

[4] = system: Botrytis cinerea; type: cell-based; settings: 120 h, 25 ppm by volume, Vogel medium, 20° C., five days, dark, read-out: growth inhibition ratio
[5] = system: Botrytis cinerea; test: Control test of cucumber gray mold (sprayed young cucumber seedlings); type: in vivo; settings: 96 h, four days after inoculation; for pest or weed control at 25 ppm: 25 ppm by mass spray; for pest or weed control at 125 ppm: 125 ppm by mass spray
Protocol: Then, the drug liquid was sprayed onto young cucumber seedlings cultivated in a nursery pot (variety “Jihai”-based, cotyledon stage), and then air-dried. […] They were left still in a moist room at 20° C. Four days after inoculation, leaves of the young cucumber seedlings were visually observed, and the control value was calculated from the lesion area ratio in accordance with the following equation. [formula]

[6] = system: Glomerella cingulata; test: Fungicidal effect test against fungi causing grape ripe rot disease; settings: Colletotrichum gloeosporioides, 72 h, read-out: growth inhibition ratio

COC(=O)N(Cc1ccc(C)c(C)c1)NC(=O)c1cc(C)nnc1Oc1cccc(C2CC2)c1F [b-29]
≥ 75%: inhibition of growth at 25 ppm [1] | pest or weed control at 125 ppm [2] | pest or weed control at 125 ppm [3] | inhibition of growth at 25 ppm [4] | pest or weed control at 25 ppm [5] | pest or weed control at 125 ppm [5] | inhibition of growth at 25 ppm [6]

COC(=O)N(Cc1ccc(OC)cc1C)NC(=O)c1cc(C)ncc1Oc1cccc(C2CC2)c1F [b-104]
≥ 75%: inhibition of growth at 25 ppm [1] | pest or weed control at 125 ppm [2] | pest or weed control at 125 ppm [3] | inhibition of growth at 25 ppm [4] | pest or weed control at 25 ppm [5] | pest or weed control at 125 ppm [5]

COC(=O)N(Cc1ccc(C)cc1C)NC(=O)c1cc(Cl)nnc1Oc1ccc2c(c1)OCO2 [b-81]
≥ 75%: inhibition of growth at 25 ppm [1] | pest or weed control at 125 ppm [2] | pest or weed control at 125 ppm [3] | inhibition of growth at 25 ppm [4] | pest or weed control at 125 ppm [5] | inhibition of growth at 25 ppm [6]

COC(=O)N(Cc1ccc(C)cc1C)/N=C(\OC)c1cc(C)nnc1Oc1cccc(Cl)c1F [b-220, Methyl (Z)-2-((3-(3-chloro-2-fluorophenoxy)-6-methylpyridazin-4-yl)(methoxy)methylene)-1-(2,4-dimethylbenzyl)hydrazine-1-carboxylate]
≥ 75%: inhibition of growth at 25 ppm [1] | pest or weed control at 125 ppm [2] | pest or weed control at 125 ppm [3] | inhibition of growth at 25 ppm [4] | pest or weed control at 125 ppm [5] | inhibition of growth at 25 ppm [6]

COC(=O)N(Cc1ccc(OC)cc1OC)NC(=O)c1nc(C)ncc1Oc1cccc(C2CC2)c1F [b-86]
≥ 75%: pest or weed control at 125 ppm [2] | pest or weed control at 125 ppm [3] | inhibition of growth at 25 ppm [4] | pest or weed control at 25 ppm [5] | pest or weed control at 125 ppm [5] | inhibition of growth at 25 ppm [6]

COC(=O)N(Cc1ccc(OC)cc1)NC(=O)c1cc(C)nnc1Oc1cccc(C2CC2)c1F [b-100]
≥ 75%: inhibition of growth at 25 ppm [1] | pest or weed control at 125 ppm [2] | pest or weed control at 125 ppm [3] | inhibition of growth at 25 ppm [4] | inhibition of growth at 25 ppm [6]

CC(=O)N(Cc1ccc(C)cc1C)NC(=O)c1cc(C)ncc1Oc1cccc(C2CC2)c1F [b-9, N′-acetyl-5-(3-cyclopropyl-2-fluorophenoxy)-N′-(2,4-dimethylbenzyl)-2-methylisonicotinohydrazide]
≥ 75%: inhibition of growth at 25 ppm [1] | pest or weed control at 125 ppm [2] | pest or weed control at 125 ppm [3] | inhibition of growth at 25 ppm [4] | pest or weed control at 25 ppm [5] | pest or weed control at 125 ppm [5] | inhibition of growth at 25 ppm [6]

COC(=O)N(Cc1ccc(F)cc1C)NC(=O)c1cc(C)nnc1Oc1cccc(C2CC2)c1F [b-121]
≥ 75%: inhibition of growth at 25 ppm [1] | pest or weed control at 125 ppm [2] | pest or weed control at 125 ppm [3] | inhibition of growth at 25 ppm [4] | pest or weed control at 25 ppm [5] | pest or weed control at 125 ppm [5] | inhibition of growth at 25 ppm [6]

CCCC(=O)N(Cc1ccc(C)cc1C)NC(=O)c1cc(C)nnc1Oc1cccc(C2CC2)c1F [b-20]
≥ 75%: inhibition of growth at 25 ppm [1] | pest or weed control at 125 ppm [2] | pest or weed control at 125 ppm [3] | inhibition of growth at 25 ppm [4] | pest or weed control at 125 ppm [5] | inhibition of growth at 25 ppm [6]

COC(=O)N(Cc1ccc(C)cc1C)NC(=O)c1c(Oc2cccc(Br)c2F)nnc2c1CCC2 [b-92, Methyl 2-(3-(3-bromo-2-fluorophenoxy)-6,7-dihydro-5H-cyclopenta[c]pyridazine-4-carbonyl)-1-(2,4-dimethylbenzyl)hydrazine-1-carboxylate]
≥ 75%: inhibition of growth at 25 ppm [1] | pest or weed control at 125 ppm [2] | pest or weed control at 125 ppm [3] | inhibition of growth at 25 ppm [4] | pest or weed control at 25 ppm [5] | pest or weed control at 125 ppm [5] | inhibition of growth at 25 ppm [6]

COC(=O)N(Cc1ccc(C2CC2)cc1)NC(=O)c1cc(C)nnc1Oc1cccc(C2CC2)c1F [b-163]
≥ 75%: inhibition of growth at 25 ppm [1] | pest or weed control at 125 ppm [2] | pest or weed control at 125 ppm [3] | inhibition of growth at 25 ppm [4] | pest or weed control at 25 ppm [5] | pest or weed control at 125 ppm [5] | inhibition of growth at 25 ppm [6]

COC(=O)N(Cc1ccc(OC)cc1C)NC(=O)c1c(Cl)cncc1Oc1cccc(C2CC2)c1F [b-206]
≥ 75%: inhibition of growth at 25 ppm [1] | pest or weed control at 125 ppm [2] | pest or weed control at 125 ppm [3] | inhibition of growth at 25 ppm [4] | pest or weed control at 25 ppm [5] | pest or weed control at 125 ppm [5] | inhibition of growth at 25 ppm [6]

COC(=O)N(Cc1ccc(C)cc1C)NC(=O)c1cc(C)nnc1Oc1cccc(Br)c1Cl [b-68]
≥ 75%: inhibition of growth at 25 ppm [1] | pest or weed control at 125 ppm [2] | pest or weed control at 125 ppm [3] | inhibition of growth at 25 ppm [4] | pest or weed control at 125 ppm [5] | inhibition of growth at 25 ppm [6]

COC(=O)N(Cc1ccc(OC)cc1C)NC(=O)c1cc(C)nnc1Oc1cccc(C2CC2)c1F [b-44]
≥ 75%: inhibition of growth at 25 ppm [1] | pest or weed control at 125 ppm [2] | pest or weed control at 125 ppm [3] | inhibition of growth at 25 ppm [4] | pest or weed control at 25 ppm [5] | pest or weed control at 125 ppm [5] | inhibition of growth at 25 ppm [6]

COC(=O)N(Cc1ccc(C)cc1)NC(=O)c1cc(C)nnc1Oc1cccc(C2CC2)c1F [b-101]
≥ 75%: inhibition of growth at 25 ppm [1] | pest or weed control at 125 ppm [2] | pest or weed control at 125 ppm [3] | inhibition of growth at 25 ppm [4] | pest or weed control at 25 ppm [5] | pest or weed control at 125 ppm [5] | inhibition of growth at 25 ppm [6]

COC(=O)N(CCc1ccc(Cl)cc1Cl)NC(=O)c1cc(C)nnc1Oc1cccc(C2CC2)c1F [b-65]
≥ 75%: inhibition of growth at 25 ppm [1] | pest or weed control at 125 ppm [2] | pest or weed control at 125 ppm [3] | inhibition of growth at 25 ppm [6]

CCOC(=O)N(Cc1ccc(C)cc1C)NC(=O)c1cc(C)nnc1Oc1cccc(C2CC2)c1F [b-21]
≥ 75%: inhibition of growth at 25 ppm [1] | pest or weed control at 125 ppm [2] | pest or weed control at 125 ppm [3] | inhibition of growth at 25 ppm [4] | pest or weed control at 25 ppm [5] | pest or weed control at 125 ppm [5] | inhibition of growth at 25 ppm [6]

COC(=O)N(Cc1ccc(OC)cc1OC)NC(=O)c1cc(C)nnc1Oc1cccc(C2CC2)c1F [b-83]
≥ 75%: inhibition of growth at 25 ppm [1] | pest or weed control at 125 ppm [2] | pest or weed control at 125 ppm [3] | inhibition of growth at 25 ppm [4] | pest or weed control at 125 ppm [5] | inhibition of growth at 25 ppm [6]

Cc1ccc(CN(NC(=O)c2cc(C)nnc2Oc2cccc(C3CC3)c2F)C(=O)OCC2CC2)c(C)c1 [b-183]
≥ 75%: inhibition of growth at 25 ppm [1] | pest or weed control at 125 ppm [2] | pest or weed control at 125 ppm [3] | inhibition of growth at 25 ppm [4] | pest or weed control at 25 ppm [5] | pest or weed control at 125 ppm [5] | inhibition of growth at 25 ppm [6]

COC(=O)N(Cc1ccc(OC(F)(F)F)cc1C)NC(=O)c1cc(C)nnc1Oc1cccc(C2CC2)c1F [b-158]
≥ 75%: inhibition of growth at 25 ppm [1] | pest or weed control at 125 ppm [2] | pest or weed control at 125 ppm [3] | inhibition of growth at 25 ppm [4] | pest or weed control at 25 ppm [5] | pest or weed control at 125 ppm [5] | inhibition of growth at 25 ppm [6]

COC(=O)N(Cc1ccc(C)cc1C)NC(=O)c1cc(C)nnc1Oc1cccc(OC)c1 [b-123]
≥ 75%: inhibition of growth at 25 ppm [1] | pest or weed control at 125 ppm [2] | pest or weed control at 125 ppm [3] | inhibition of growth at 25 ppm [4] | inhibition of growth at 25 ppm [6]

COC(=O)N(Cc1ccc2c(c1)OCO2)NC(=O)c1cc(C)nnc1Oc1cccc(C2CC2)c1F [b-110]
≥ 75%: inhibition of growth at 25 ppm [1] | pest or weed control at 125 ppm [2] | pest or weed control at 125 ppm [3] | inhibition of growth at 25 ppm [4] | inhibition of growth at 25 ppm [6]

COC(=O)N(Cc1ccc(OC)cc1OC)NC(=O)c1cc(C)ncc1Oc1cccc(C2CC2)c1F [b-85]
≥ 75%: pest or weed control at 125 ppm [2] | pest or weed control at 125 ppm [3] | inhibition of growth at 25 ppm [4] | pest or weed control at 25 ppm [5] | pest or weed control at 125 ppm [5] | inhibition of growth at 25 ppm [6]

COC(=O)N(Cc1ccc(C)cc1C)NC(=O)c1cc(C)nnc1Oc1cccc(F)c1Cl [b-180]
≥ 75%: pest or weed control at 125 ppm [2] | pest or weed control at 125 ppm [3] | inhibition of growth at 25 ppm [4]

COC(=O)N(Cc1ccccc1)NC(=O)c1cc(C)nnc1Oc1cccc(C2CC2)c1F [b-102]
≥ 75%: inhibition of growth at 25 ppm [1] | pest or weed control at 125 ppm [2] | pest or weed control at 125 ppm [3] | inhibition of growth at 25 ppm [4] | inhibition of growth at 25 ppm [6]
